The record followed here is patent publication US10414731B2, “Substituted oxopyridine derivatives” (priority 2014, dated 2019).

The target of one assay is human factor XIa (Homo sapiens (Human), UniProt P03951). Put plainly: Measurement of FXIa inhibition (fluorogenic peptide substrate). The assay is classed as biochemical. The conditions noted are these: factor XIa from Kordia, substrate Boc-Glu(OBzl)-Ala-Arg-AMC, 22° C., 30 min. How it is done:
The factor XIa inhibition of the substances according to the invention is determined using a biochemical test system which utilizes the reaction of a peptidic factor XIa substrate to determine the enzymatic activity of human factor XIa. Here, factor XIa cleaves from the peptic factor XIa substrate the C-terminal aminomethylcoumarin (AMC), the fluorescence of which is measured. The determinations are carried out in microtitre plates.
1 μl of the diluted substance solutions is placed into each of the wells of white microtitre plates from Greiner (384 wells). […] After […] of incubation, the enzyme reaction is started by addition of 20 μl of the factor XIa substrate Boc-Glu(OBz1)-Ala-Arg-AMC dissolved in assay buffer (10 μM in assay buffer) from Bachem, the mixture is incubated at room temperature (22° C.) for 30 min and fluorescence is then measured (excitation: 360 nm, emission: 460 nm). The measured emissions of the test batches with test substance are compared to those of control batches without test substance (only dimethyl sulphoxide instead of test substance in dimethyl sulphoxide), and IC50 values are calculated from the concentration/activity relationships.

The target of the next assay is human plasma kallikrein (Homo sapiens (Human), UniProt P03952). Put plainly: Determination of the plasma kallikrein activity (fluorogenic peptide substrate). Format: biochemical. The conditions noted are these: plasma kallikrein from Kordia, substrate H-Pro-Phe-Arg-AMC, 22° C. As for the experimental part: To determine the plasma kallikrein inhibition of the substances according to the invention, a biochemical test system is used which utilizes the reaction of a peptidic plasma kallikrein substrate to determine the enzymatic activity of human plasma kallikrein. Here, plasma kallikrein cleaves from the peptic plasma kallikrein substrate the C-terminal aminomethylcoumarin (AMC), the fluorescence of which is measured. The determinations are carried out in microtitre plates.
Test substances are dissolved in dimethyl sulphoxide and serially diluted in dimethyl sulphoxide (3000 μM to 0.0078 μM; resulting final concentrations in the test: 50 μM to 0.00013 μM). 1 μl of the diluted substance solutions is placed into each of the wells of white microtitre plates from Greiner (384 wells). 20 μl of assay buffer (50 mM Tris/HCl pH 7.4; 100 mM sodium chloride solution; 5 mM calcium chloride solution; 0.1% of bovine serum albumin) and 20 μl of plasma kallikrein from Kordia (0.6 nM in assay buffer) are then added successively. After […] of incubation, the enzyme reaction is started by addition of 20 μl of the substrate H-Pro-Phe-Arg-AMC dissolved in assay buffer (10 μM in assay buffer) from Bachem, the mixture is incubated at room temperature (22° C.) for […] and fluorescence is then measured (excitation: 360 nm, emission: 460 nm). The measured emissions of the test batches with test substance are compared to those of control batches without test substance (only dimethyl sulphoxide instead of test substance in dimethyl sulphoxide), and IC50 values are calculated from the concentration/activity relationships.

human factor XIa, sequence (P03951 whole entry, looked up): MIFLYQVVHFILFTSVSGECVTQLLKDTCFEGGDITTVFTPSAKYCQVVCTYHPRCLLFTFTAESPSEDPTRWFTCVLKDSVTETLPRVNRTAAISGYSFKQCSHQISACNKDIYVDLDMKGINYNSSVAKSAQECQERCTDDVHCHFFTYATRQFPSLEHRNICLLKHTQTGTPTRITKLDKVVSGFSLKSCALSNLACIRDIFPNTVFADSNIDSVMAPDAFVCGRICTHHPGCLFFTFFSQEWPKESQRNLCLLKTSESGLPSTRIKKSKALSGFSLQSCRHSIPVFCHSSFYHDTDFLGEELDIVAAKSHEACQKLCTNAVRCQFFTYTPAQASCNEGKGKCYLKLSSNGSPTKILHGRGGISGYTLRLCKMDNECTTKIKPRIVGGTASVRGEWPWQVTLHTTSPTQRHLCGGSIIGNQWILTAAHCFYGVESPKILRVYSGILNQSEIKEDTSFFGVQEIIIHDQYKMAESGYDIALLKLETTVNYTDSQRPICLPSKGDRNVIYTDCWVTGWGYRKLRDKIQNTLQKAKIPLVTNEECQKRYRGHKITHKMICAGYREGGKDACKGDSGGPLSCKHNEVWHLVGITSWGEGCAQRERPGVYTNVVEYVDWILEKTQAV
human factor XIa, sequence (P03951 whole entry partner, looked up): as the sequence (P03951 whole entry, looked up) above
human plasma kallikrein, sequence (P03952 whole entry, looked up): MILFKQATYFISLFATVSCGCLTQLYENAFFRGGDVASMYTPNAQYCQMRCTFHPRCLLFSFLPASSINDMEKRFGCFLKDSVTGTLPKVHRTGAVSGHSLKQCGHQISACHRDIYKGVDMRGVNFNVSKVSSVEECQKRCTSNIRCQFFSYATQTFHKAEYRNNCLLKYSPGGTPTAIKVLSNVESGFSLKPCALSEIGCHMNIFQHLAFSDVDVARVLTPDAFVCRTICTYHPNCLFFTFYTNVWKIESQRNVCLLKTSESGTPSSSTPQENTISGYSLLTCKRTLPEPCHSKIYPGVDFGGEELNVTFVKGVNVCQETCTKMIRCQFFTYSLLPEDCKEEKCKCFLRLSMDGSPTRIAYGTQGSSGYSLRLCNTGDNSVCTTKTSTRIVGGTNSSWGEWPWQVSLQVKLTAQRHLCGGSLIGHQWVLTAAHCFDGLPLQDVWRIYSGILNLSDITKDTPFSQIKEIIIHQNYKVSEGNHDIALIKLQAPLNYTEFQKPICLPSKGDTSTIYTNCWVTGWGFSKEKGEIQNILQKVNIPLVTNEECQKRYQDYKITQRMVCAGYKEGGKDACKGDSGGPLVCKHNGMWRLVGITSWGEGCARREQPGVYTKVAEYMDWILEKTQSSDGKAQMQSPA
human plasma kallikrein, sequence (P03952 whole entry partner, looked up): as the sequence (P03952 whole entry, looked up) above

For `COc1cn(C(C[C@@H]2CCCCO2)C(=O)Nc2ccc(C(=O)OC(C)[C@H](N)C(=O)O)cc2)c(=O)cc1-c1cc(Cl)ccc1C#N` (single isomer, unassigned) [Example 1], the IC50 at human factor XIa was found to be 2 nM; at human plasma kallikrein, 9.1 nM. Consider `CCC(C(=O)Nc1ccc(C(=O)OC(C)[C@H](N)C(=O)O)cc1)n1cc(OC)c(-c2cc(Cl)ccc2C#N)cc1=O` (single isomer, unassigned) [Example 2, O-[4-({2-[4-(5-Chloro-2-cyanophenyl)-5-methoxy-2-oxopyridin-1(2H)-yl]butanoyl}amino)-benzoyl]-L-threonine], for which the 50% inhibitory concentration (IC50) against human factor XIa is 54 nM; against human plasma kallikrein, 93 nM. As for `CCC(C(=O)Nc1ccc(C(=O)OC[C@](C)(N)C(=O)O)cc1)n1cc(OC)c(-c2cc(Cl)ccc2C#N)cc1=O` (single isomer, unassigned) [Example 3, O-[4-({2-[4-(5-Chloro-2-cyanophenyl)-5-methoxy-2-oxopyridin-1(2H)-yl]butanoyl}amino)-benzoyl]-2-methyl-L-serine], the IC50 against human factor XIa was determined as 82 nM; against human plasma kallikrein it was 60 nM. For `CCC(C(=O)Nc1ccc(C(=O)OC[C@H](N)C(=O)O)cc1)n1cc(OC)c(-c2cc(Cl)ccc2C#N)cc1=O` (single isomer, unassigned) [Example 4, O-[4-({2-[4-(5-Chloro-2-cyanophenyl)-5-methoxy-2-oxopyridin-1(2H)-yl]butanoyl}amino)-benzoyl]-L-serine] the same measures were 54 nM and 92 nM. For `CCC(C(=O)Nc1ccc(C(=O)OC[C@H](NC(=O)CN2CCCC2)C(=O)O)cc1)n1cc(OC)c(-c2cc(Cl)ccc2C#N)cc1=O` (single isomer, unassigned) [Example 5, O-[4-({2-[4-(5-Chloro-2-cyanophenyl)-5-methoxy-2-oxopyridin-1(2H)-yl]butanoyl}amino)-benzoyl]-N-(pyrrolidin-1-ylacetyl)-L-serine] the same measures were 60 nM and 35 nM. For `CCC(C(=O)Nc1ccc(C(=O)OC[C@H](NC(=O)C2CCCCN2C)C(=O)O)cc1)n1cc(OC)c(-c2cc(Cl)ccc2C#N)cc1=O` (single isomer, unassigned) [Example 7] the same measures were 91 nM and 52 nM. As for `CCC(C(=O)Nc1ccc(C(=O)OC[C@H](NC(=O)C2(N(C)C)CC2)C(=O)O)cc1)n1cc(OC)c(-c2cc(Cl)ccc2C#N)cc1=O` (single isomer, unassigned) [Example 8, O-[4-({2-[4-(5-Chloro-2-cyanophenyl)-5-methoxy-2-oxopyridin-1(2H)-yl]butanoyl}amino)-benzoyl]-N-{[1-(dimethylamino)cyclopropyl]carbonyl}-L-serine], the IC50 on human factor XIa came to 110 nM; against human plasma kallikrein it was 55 nM.

In the case of `CCC(C(=O)Nc1ccc(C(=O)OC[C@H](NC(=O)[C@H](C(C)C)N(C)C)C(=O)O)cc1)n1cc(OC)c(-c2cc(Cl)ccc2C#N)cc1=O` (single isomer, unassigned) [Example 9, N,N-Dimethyl-L-valyl-O-[4-({2-[4-(5-chloro-2-cyanophenyl)-5-methoxy-2-oxopyridin-1(2H)-yl]butanoyl}amino)benzoyl]-L-serine], the IC50 against human factor XIa is 63 nM; against human plasma kallikrein, 51 nM. On to `CCC(C(=O)Nc1ccc(C(=O)O[C@H]2CCN[C@@H]2C(=O)O)cc1)n1cc(OC)c(-c2cc(Cl)ccc2C#N)cc1=O` (single isomer, unassigned) [Example 10], for which the IC50 came out at 14 nM against human factor XIa and 91 nM on human plasma kallikrein.

As for `CCC(C(=O)Nc1ccc(C(=O)O[C@H]2CN[C@@H](C(=O)O)C2)cc1)n1cc(OC)c(-c2cc(Cl)ccc2C#N)cc1=O` (single isomer, unassigned) [Example 11], the IC50 against human factor XIa was 260 nM; against human plasma kallikrein, 280 nM. As to `CCC(C(=O)Nc1ccc(C(=O)OC[C@@H](C(=O)O)N2CCCC2)cc1)n1cc(OC)c(-c2cc(Cl)ccc2C#N)cc1=O` (single isomer, unassigned) [Example 12], the half-maximal inhibitory concentration (IC50) is 26 nM against human factor XIa and 43 nM against human plasma kallikrein. The matching figures for `CCC(C(=O)Nc1ccc(C(=O)OC2CCN(C)CC2)cc1)n1cc(OC)c(-c2cc(Cl)ccc2C#N)cc1=O` (single isomer, unassigned) [Example 13, 1-Methylpiperidin-4-yl 4-({2-[4-(5-chloro-2-cyanophenyl)-5-methoxy-2-oxopyridin-1(2H)-yl]butanoyl}amino)benzoate]: 230 nM and 120 nM. The compound `CCC(C(=O)Nc1ccc(C(=O)OCCN2CCN(C)CC2)cc1)n1cc(OC)c(-c2cc(Cl)ccc2C#N)cc1=O` (single isomer, unassigned) [Example 14, 2-(4-Methylpiperazin-1-yl)ethyl 4-({2-[4-(5-chloro-2-cyanophenyl)-5-methoxy-2-oxopyridin-1(2H)-yl]butanoyl}amino)benzoate] displayed a concentration for half-maximal inhibition (IC50) at human plasma kallikrein of 38 nM.

Turning to `CCC(C(=O)Nc1ccc(C(=O)OCCC2CCNCC2)cc1)n1cc(OC)c(-c2cc(Cl)ccc2C#N)cc1=O` (single isomer, unassigned) [Example 15, 2-(Piperidin-4-yl)ethyl 4-({2-[4-(5-chloro-2-cyanophenyl)-5-methoxy-2-oxopyridin-1(2H)-yl]butanoyl}amino)benzoate], the 50% inhibitory concentration (IC50) was 230 nM against human factor XIa and 44 nM on human plasma kallikrein.

Consider `CCC(C(=O)Nc1ccc(C(=O)OCCN2CCCC2)cc1)n1cc(OC)c(-c2cc(Cl)ccc2C#N)cc1=O` (single isomer, unassigned) [Example 16, 2-(Pyrrolidin-1-yl)ethyl 4-({2-[4-(5-chloro-2-cyanophenyl)-5-methoxy-2-oxopyridin-1(2H)-yl]butanoyl}amino)benzoate], for which, on human plasma kallikrein, half-maximal inhibition (IC50) was put at 40 nM.

For `CCC(C(=O)Nc1ccc(C(=O)OC[C@H](NC(=O)[C@@H]2CCCN2)C(=O)O)cc1)n1cc(OC)c(-c2cc(Cl)ccc2C#N)cc1=O` (stereo partly drawn) [Example 6, Prolyl-O-[4-({2-[4-(5-chloro-2-cyanophenyl)-5-methoxy-2-oxopyridin-1(2H)-yl]butanoyl}amino)-benzoyl]-L-serine], the IC50 on human factor XIa is 65 nM; against human plasma kallikrein, 44 nM.
